Measurements as given in patent US6355799B1, “Substituted benzene compounds, process for their preparation, and herbicidal and defoliant compositions containing them” (ISK Americas Incorporated, priority 1997, dated 2002).

Tests used:
Assay type in all cases: in vivo
[1] = system: redroot pigweed (Amaranthus retroflexus, AMARE); experiment: Pre-emerge test, greenhouse herbicide activity screening; settings: pre-emerge, rated 14 days after application, 0 = no damage, 100 = complete death
Method in brief: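 Compounds in acetone were track-sprayed at 187 l/ha, 15–1000 g ai/ha, onto sandy loam pots. Pre-emerge seeds were sown one day before spraying, with surface watering afterwards. Post-emerge plants were at the 2–3 leaf stage and sprayed with 0.25% v/v non-ionic surfactant. Injury was rated 0–100 at 14 days.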

[2] = system: barnyardgrass (Echinochloa crus-galli, ECHCG); experiment: as above; settings: pre-emerge, rated 14 days after application, 0 = no damage, 100 = complete death
Method in brief: (§1)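 Plants grown in 10 cm pots of sandy loam mix received acetone-dissolved compounds through a moving flat-fan nozzle. Doses ranged from 15 to 1000 g ai/ha. Pre-emerge pots were seeded one day earlier, post-emerge pots 8–21 days earlier. Fourteen days on, each pot was graded 0–100 for damage.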

[3] = system: green foxtail (Setaria viridis, SETVI); experiment: as above; settings: pre-emerge, rated 14 days after application, 0 = no damage, 100 = complete death
Method in brief: as §1

[4] = system: ivyleaf morningglory (Ipomoea hederacea, IPOHE); experiment: as above; settings: pre-emerge, rated 14 days after application, 0 = no damage, 100 = complete death
Method in brief: as §1

[5] = system: johnsongrass (Sorghum halepense, SORHA); experiment: as above; settings: pre-emerge, rated 14 days after application, 0 = no damage, 100 = complete death
Method in brief: as §1

[6] = system: lambsquarters (Chenopodium album, CHEAL); experiment: as above; settings: pre-emerge, rated 14 days after application, 0 = no damage, 100 = complete death
Method in brief: as §1

[7] = system: large crabgrass (Digitaria sanguinalis, DIGSA); experiment: as above; settings: pre-emerge, rated 14 days after application, 0 = no damage, 100 = complete death
Method in brief: as §1

[8] = system: sicklepod (Cassia obtusifolia, CASOB); experiment: as above; settings: pre-emerge, rated 14 days after application, 0 = no damage, 100 = complete death
Method in brief: as §1

[9] = system: velvetleaf (Abutilon theophrasti, ABUTH); experiment: as above; settings: pre-emerge, rated 14 days after application, 0 = no damage, 100 = complete death
Method in brief: as §1

[10] = system: field corn (Zea mays L., var. Dekalb 535, CORN); experiment: Pre-emerge test, crop safety; settings: pre-emerge, rated 14 days after application, 0 = no damage, 100 = complete death
Method in brief: (§2)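 Compounds in acetone were track-sprayed at 15-1000 g ai/ha (187 l/ha) on sandy loam pots: pre-emerge one day after seeding, post-emerge at 2-3 leaf stage with 0.25% v/v non-ionic surfactant. Phytotoxicity was rated 14 days later on a 0 (no damage) to 100 (complete death) scale.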

[11] = system: upland rice (Oryza sp., var. Tebonnet, RICE); experiment: Pre-emerge test, crop safety; settings: pre-emerge, rated 14 days after application, 0 = no damage, 100 = complete death
Method in brief: as §2

[12] = system: barnyardgrass (Echinochloa crus-galli, ECHCG); experiment: Post-emerge test, greenhouse herbicide activity screening; settings: 14 days after application; for Post-emerge Herbicidal Activity ECHCG: phytotoxicity rating 0-100 (0 no damage, 100 complete death); for phytotoxicity rating ECHCG: post-emerge, rating scale 0-100
Method in brief: (§3)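 Sandy loam pots; pre-emerge: sown 1 d pre-spray, surface-watered after, then bottom-watered. Post-emerge: sown 8–21 d before, 2–3 leaf stage, + 0.25% v/v NIS, bottom-watered. Acetone, 187 l/ha track spray, 15–1000 g ai/ha. 0–100 injury score, day 14.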

[13] = system: common ragweed (Ambrosia artemisizfolia L., AMBEL); experiment: as above; settings: post-emerge, 14 days after application, rating scale 0-100
Method in brief: as §3

[14] = system: green foxtail (Setaria viridis, SETVI); experiment: as above; settings: 14 days after application; for Post-emerge Herbicidal Activity SETVI: phytotoxicity rating 0-100 (0 no damage, 100 complete death); for phytotoxicity rating SETVI: post-emerge, rating scale 0-100
Method in brief: as §3

[15] = system: ivyleaf morningglory (Ipomoea hederacea, IPOHE); experiment: as above; settings: 14 days after application; for Post-emerge Herbicidal Activity IPOHE: phytotoxicity rating 0-100 (0 no damage, 100 complete death); for phytotoxicity rating IPOHE: post-emerge, rating scale 0-100
Method in brief: as §3

[16] = system: johnsongrass (Sorghum halepense, SORHA); experiment: as above; settings: 14 days after application; for Post-emerge Herbicidal Activity SORHA: phytotoxicity rating 0-100 (0 no damage, 100 complete death); for phytotoxicity rating SORHA: post-emerge, rating scale 0-100
Method in brief: as §3

[17] = system: lambsquarters (Chenopodium album, CHEAL); experiment: as above; settings: 14 days after application; for Post-emerge Herbicidal Activity CHEAL: phytotoxicity rating 0-100 (0 no damage, 100 complete death); for phytotoxicity rating CHEAL: post-emerge, rating scale 0-100
Method in brief: as §3

[18] = system: large crabgrass (Digitaria sanguinalis, DIGSA); experiment: as above; settings: 14 days after application; for Post-emerge Herbicidal Activity DIGSA: phytotoxicity rating 0-100 (0 no damage, 100 complete death); for phytotoxicity rating DIGSA: post-emerge, rating scale 0-100
Method in brief: as §3

[19] = system: redroot pigweed (Amaranthus retroflexus, AMARE); experiment: as above; settings: 14 days after application; for Post-emerge Herbicidal Activity AMARE: phytotoxicity rating 0-100 (0 no damage, 100 complete death); for phytotoxicity rating AMARE: post-emerge, rating scale 0-100
Method in brief: as §3

[20] = system: sicklepod (Cassia obtusifolia, CASOB); experiment: as above; settings: 14 days after application; for Post-emerge Herbicidal Activity CASOB: phytotoxicity rating 0-100 (0 no damage, 100 complete death); for phytotoxicity rating CASOB: post-emerge, rating scale 0-100
Method in brief: as §3

[21] = system: velvetleaf (Abutilon theophrasti, ABUTH); experiment: as above; settings: 14 days after application; for Post-emerge Herbicidal Activity ABUTH: phytotoxicity rating 0-100 (0 no damage, 100 complete death); for phytotoxicity rating ABUTH: post-emerge, rating scale 0-100
Method in brief: as §3

[22] = system: field corn (Zea mays L., var. Dekalb 535, CORN); experiment: Post-emerge test, crop safety; settings: 14 days after application; for Post-emerge Herbicidal Activity CORN (crop damage): phytotoxicity rating 0-100 (0 no damage, 100 complete death); for phytotoxicity rating CORN: post-emerge, rating scale 0-100
Method in brief: (§4)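 Each test used a mechanized track sprayer delivering 187 l/ha of acetone solution at 15–1000 g ai/ha. Post-emerge foliage at 2–3 leaves was treated with added 0.25% v/v non-ionic surfactant and bottom-watered only. Injury was assessed on day 14, where 100 means total kill.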

[23] = system: upland rice (Oryza sp., var. Tebonnet, RICE); experiment: Post-emerge test, crop safety; settings: 14 days after application; for Post-emerge Herbicidal Activity RICE (crop damage): phytotoxicity rating 0-100 (0 no damage, 100 complete death); for phytotoxicity rating RICE: post-emerge, rating scale 0-100
Method in brief: as §4

## COc1c(Cl)cc(F)c(-n2c(=O)cc(C(F)(F)F)n(C)c2=O)c1NC(=O)CC#N [2-14]
[1]; 63 g ai/ha
  Pre-emerge Herbicidal Activity AMARE (phytotoxicity rating, scale 0-100): 50
[1]; 250 g ai/ha
  Pre-emerge Herbicidal Activity AMARE (phytotoxicity rating, scale 0-100): 100
[2]; 63 g ai/ha
  Pre-emerge Herbicidal Activity ECHCG (phytotoxicity rating, scale 0-100): 0
[2]; 250 g ai/ha
  Pre-emerge Herbicidal Activity ECHCG (phytotoxicity rating, scale 0-100): 0
[3]; 63 g ai/ha
  Pre-emerge Herbicidal Activity SETVI (phytotoxicity rating, scale 0-100): 60
[3]; 250 g ai/ha
  Pre-emerge Herbicidal Activity SETVI (phytotoxicity rating, scale 0-100): 100
[4]; 63 g ai/ha
  Pre-emerge Herbicidal Activity IPOHE (phytotoxicity rating, scale 0-100): 0
[4]; 250 g ai/ha
  Pre-emerge Herbicidal Activity IPOHE (phytotoxicity rating, scale 0-100): 100
[5]; 63 g ai/ha
  Pre-emerge Herbicidal Activity SORHA (phytotoxicity rating, scale 0-100): 0
[5]; 250 g ai/ha
  Pre-emerge Herbicidal Activity SORHA (phytotoxicity rating, scale 0-100): 30
[6]; 63 g ai/ha
  Pre-emerge Herbicidal Activity CHEAL (phytotoxicity rating, scale 0-100): 50
[6]; 250 g ai/ha
  Pre-emerge Herbicidal Activity CHEAL (phytotoxicity rating, scale 0-100): 100
[7]; 63 g ai/ha
  Pre-emerge Herbicidal Activity DIGSA (phytotoxicity rating, scale 0-100): 0
[7]; 250 g ai/ha
  Pre-emerge Herbicidal Activity DIGSA (phytotoxicity rating, scale 0-100): 20
[8]; 63 g ai/ha
  Pre-emerge Herbicidal Activity CASOB (phytotoxicity rating, scale 0-100): 0
[8]; 250 g ai/ha
  Pre-emerge Herbicidal Activity CASOB (phytotoxicity rating, scale 0-100): 60
[9]; 63 g ai/ha
  Pre-emerge Herbicidal Activity ABUTH (phytotoxicity rating, scale 0-100): 90
[9]; 250 g ai/ha
  Pre-emerge Herbicidal Activity ABUTH (phytotoxicity rating, scale 0-100): 100
[10]; 63 g ai/ha
  Pre-emerge crop damage CORN (phytotoxicity rating, scale 0-100): 0
[10]; 250 g ai/ha
  Pre-emerge crop damage CORN (phytotoxicity rating, scale 0-100): 0
[11]; 63 g ai/ha
  Pre-emerge crop damage RICE (phytotoxicity rating, scale 0-100): 0
[11]; 250 g ai/ha
  Pre-emerge crop damage RICE (phytotoxicity rating, scale 0-100): 30
[12]; 63 g ai/ha
  Post-emerge Herbicidal Activity ECHCG: 0
  phytotoxicity rating ECHCG: 30
[12]; 250 g ai/ha
  Post-emerge Herbicidal Activity ECHCG: 0
  phytotoxicity rating ECHCG: 40
[13]; 63 g ai/ha
  phytotoxicity rating AMBEL: 60
[13]; 250 g ai/ha
  phytotoxicity rating AMBEL: 90
[14]; 63 g ai/ha
  Post-emerge Herbicidal Activity SETVI: 0
  phytotoxicity rating SETVI: 20
[14]; 250 g ai/ha
  Post-emerge Herbicidal Activity SETVI: 0
  phytotoxicity rating SETVI: 50
[15]; 63 g ai/ha
  Post-emerge Herbicidal Activity IPOHE: 40
  phytotoxicity rating IPOHE: 70
[15]; 250 g ai/ha
  Post-emerge Herbicidal Activity IPOHE: 80
  phytotoxicity rating IPOHE: 90
[16]; 63 g ai/ha
  Post-emerge Herbicidal Activity SORHA: 0
  phytotoxicity rating SORHA: 20
[16]; 250 g ai/ha
  Post-emerge Herbicidal Activity SORHA: 0
  phytotoxicity rating SORHA: 20
[17]; 63 g ai/ha
  Post-emerge Herbicidal Activity CHEAL: 30
  phytotoxicity rating CHEAL: 80
[17]; 250 g ai/ha
  Post-emerge Herbicidal Activity CHEAL: 40
  phytotoxicity rating CHEAL: 100
[18]; 63 g ai/ha
  Post-emerge Herbicidal Activity DIGSA: 0
  phytotoxicity rating DIGSA: 10
[18]; 250 g ai/ha
  Post-emerge Herbicidal Activity DIGSA: 0
  phytotoxicity rating DIGSA: 20
[19]; 63 g ai/ha
  Post-emerge Herbicidal Activity AMARE: 40
  phytotoxicity rating AMARE: 85
[19]; 250 g ai/ha
  Post-emerge Herbicidal Activity AMARE: 70
  phytotoxicity rating AMARE: 100
[20]; 63 g ai/ha
  Post-emerge Herbicidal Activity CASOB: 10
  phytotoxicity rating CASOB: 40
[20]; 250 g ai/ha
  Post-emerge Herbicidal Activity CASOB: 10
  phytotoxicity rating CASOB: 70
[21]; 63 g ai/ha
  Post-emerge Herbicidal Activity ABUTH: 90
  phytotoxicity rating ABUTH: 100
[21]; 250 g ai/ha
  Post-emerge Herbicidal Activity ABUTH: 95
  phytotoxicity rating ABUTH: 100
[22]; 63 g ai/ha
  Post-emerge Herbicidal Activity CORN (crop damage): 0
  phytotoxicity rating CORN: 50
[22]; 250 g ai/ha
  Post-emerge Herbicidal Activity CORN (crop damage): 10
  phytotoxicity rating CORN: 60
[23]; 63 g ai/ha
  Post-emerge Herbicidal Activity RICE (crop damage): 10
  phytotoxicity rating RICE: 60
[23]; 250 g ai/ha
  Post-emerge Herbicidal Activity RICE (crop damage): 30
  phytotoxicity rating RICE: 90
